In US20240409585A1, “MACROCYCLIC IMMUNOMODULATORS” (priority 2021, published 2024):
Read-outs that look alike come from different tables or passages of the source. Bridge positions count the residues as written; N and C are the ends. Square brackets hold non-standard residues; d marks the D form. Peptide text beside a SMILES is read from it. * marks the point of attachment. ξ: configuration not given here. Tyr(3,5-Br2) = N[C@@H](Cc1cc(Br)c(O)c(Br)c1)C(=O)O; Phe(4-COOH) = N[C@@H](Cc1ccc(C(=O)O)cc1)C(=O)O; Bip = N[C@@H](Cc1ccc(-c2ccccc2)cc1)C(=O)O; Phe(3-Me) = Cc1cccc(C[C@H](N)C(=O)O)c1; Phe(2-F) = N[C@@H](Cc1ccccc1F)C(=O)O; Val(3-OH) = CC(C)(O)[C@H](N)C(=O)O; NMePhg = CN[C@H](C(=O)O)c1ccccc1; 3Pal = N[C@@H](Cc1cccnc1)C(=O)O; 4Pal = N[C@@H](Cc1ccncc1)C(=O)O; Cha = N[C@@H](CC1CCCCC1)C(=O)O; Ile(3ξ) = CCC(C)[C@H](N)C(=O)O; Thr(3ξ) = CC(O)[C@H](N)C(=O)O; Pen = CC(C)(S)[C@H](N)C(=O)O; ξCha = NC(CC1CCCCC1)C(=O)O; Carboxymethyl = O=C(O)C*; NMeA = CN[C@@H](C)C(=O)O; Orn = NCCC[C@H](N)C(=O)O; Pra = C#CC[C@H](N)C(=O)O; dNMeA = CN[C@H](C)C(=O)O; Dab = NCC[C@H](N)C(=O)O; Dap = NC[C@H](N)C(=O)O

Biological target: T1, PE-labeled human PD-L1-Ig binding to Jurkat cell line over-expressing human PD-1 (Jurkat-PD-1) (Homo sapiens, UniProt Q15116)
T1 construct: expressed in transfected cells; host or cells: Jurkat
T1 sequence (Q15116 25-288): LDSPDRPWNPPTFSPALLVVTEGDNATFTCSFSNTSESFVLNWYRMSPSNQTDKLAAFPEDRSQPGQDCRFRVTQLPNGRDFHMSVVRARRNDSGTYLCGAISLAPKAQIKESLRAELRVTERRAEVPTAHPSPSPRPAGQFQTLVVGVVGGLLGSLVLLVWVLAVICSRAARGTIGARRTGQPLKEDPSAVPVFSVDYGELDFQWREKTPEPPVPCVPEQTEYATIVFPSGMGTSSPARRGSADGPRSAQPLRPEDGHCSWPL
Experiment: Jurkat-PD-1 Cell Binding High-Content Screening Assay (CBA): Method 1

[1] = Jurkat-hPD-1 cells, PE-labeled PD-L1-Ig 20 nM final, read-out: Jurkat HPDL1 PD1 IC50 (uM) (Method 1)

Row | IC50 (Jurkat-PD-1 cells, PE-labeled PD-L1-Ig, μM, read-out: CBA Method 1 μM) | IC50 [1] | SMILES
1 | 0.03 µM | – | CCC(C)[C@@H]1NC(=O)[C@H](Cc2ccc(-c3ccccc3)cc2)NC(=O)[C@H](C(C)C)NC(=O)[C@H](Cc2c[nH]c3ccccc23)NC(=O)[C@H](CC(=O)O)NC(=O)[C@H](Cc2ccc(OCC(=O)O)cc2)NC(=O)[C@H](C(C)O)NC(=O)CSC[C@@H](C(=O)N[C@@H](CO)C(=O)NCC(=O)N[C@@H](CO)C(N)=O)NC(=O)[C@H](C(C)O)NC(=O)[C@H](C(C)C)NC(=O)C(CC2CCCCC2)NC(=O)[C@H](CCN)NC(=O)[C@@H](CC(C)C)NC(=O)[C@H](C)N(C)C1=O (stereo partly drawn) [Example 5003] ({CH2CO}-[Thr(3ξ)]Y(Carboxymethyl)DWV[Bip][Ile(3ξ)][NMeA][dL][Dab][ξCha]V[Thr(3ξ)]CSGS-NH2; thioether N-14)
2 | – | 0.14 µM | CC(C)C[C@@H]1NC(=O)[C@H](CCN)NC(=O)[C@@H](CC(C)C)NC(=O)[C@H](C)N(C)C(=O)[C@H](Cc2cnc[nH]2)NC(=O)[C@H](Cc2ccc(-c3ccccc3)cc2)NC(=O)[C@H](C(C)C)NC(=O)[C@H](Cc2c[nH]c3ccccc23)NC(=O)[C@H](CC(=O)O)NC(=O)[C@H](Cc2ccccc2F)NC(=O)[C@H](CN)NC(=O)CSC[C@@H](C(=O)N[C@@H](C)C(N)=O)NC(=O)[C@H]([C@@H](C)O)NC(=O)[C@H](C(C)C)NC1=O [Compound 1425] ({CH2CO}-[Dap][Phe(2-F)]DWV[Bip]H[NMeA][dL][Dab]LVTCA-NH2; thioether N-14)
3 | – | 0.12 µM | CC(C)C[C@@H]1NC(=O)[C@H](CCN)NC(=O)[C@@H](CC(C)C)NC(=O)[C@H](C)N(C)C(=O)[C@H](CCCNC(=N)N)NC(=O)[C@H](Cc2ccc(-c3ccccc3)cc2)NC(=O)[C@H](C(C)C)NC(=O)[C@H](Cc2c[nH]c3ccccc23)NC(=O)[C@H](CC(=O)O)NC(=O)[C@H](Cc2ccc(O)cc2)NC(=O)[C@H](Cc2cccnc2)NC(=O)CSC[C@@H](C(=O)N[C@@H](C)C(N)=O)NC(=O)[C@H]([C@@H](C)O)NC(=O)[C@H](C(C)C)NC1=O [Compound 1053] ({CH2CO}-[3Pal]YDWV[Bip]R[NMeA][dL][Dab]LVTCA-NH2; thioether N-14)
4 | – | 0.02 µM | CCC(C)[C@@H]1NC(=O)[C@H](Cc2ccc(-c3ccccc3)cc2)NC(=O)[C@H](CC(C)C)NC(=O)[C@H](Cc2c[nH]c3ccccc23)NC(=O)[C@H](CC(=O)O)NC(=O)[C@H](Cc2ccc(C(=O)O)cc2)NC(=O)[C@H](Cc2ccc(OCC(=O)O)cc2)NC(=O)CSC[C@@H](C(=O)N[C@@H](CO)C(N)=O)NC(=O)[C@H](CO)NC(=O)[C@H](C(C)C)NC(=O)[C@H](CC2CCCCC2)NC(=O)[C@H](CCN)NC(=O)[C@@H](CC(C)C)NC(=O)[C@H](C)N(C)C1=O (stereo partly drawn) [Compound 1929] ({CH2CO}-Y(Carboxymethyl)[Phe(4-COOH)]DWL[Bip][Ile(3ξ)][NMeA][dL][Dab][Cha]VSCS-NH2; thioether N-14)
5 | – | 0.07 µM | Cc1cccc(C[C@@H]2NC(=O)[C@H](CC(=O)O)NC(=O)[C@H](Cc3ccc(OCC(=O)O)cc3)NC(=O)[C@H]([C@@H](C)O)NC(=O)CSC[C@@H](C(N)=O)NC(=O)[C@H](CCCN)NC(=O)[C@H](C(C)C)NC(=O)[C@H](CC3CCCCC3)NC(=O)[C@H](CCN)NC(=O)[C@@H](CC(C)C)NC(=O)[C@H](C)N(C)C(=O)[C@H](Cc3ccc(OCC(=O)O)cc3)NC(=O)[C@H](Cc3ccc(-c4ccccc4)cc3)NC(=O)[C@H](Cc3ccc(OCC(=O)O)cc3)NC2=O)c1 [Compound 1674] ({CH2CO}-TY(Carboxymethyl)D[Phe(3-Me)]Y(Carboxymethyl)[Bip]Y(Carboxymethyl)[NMeA][dL][Dab][Cha]V[Orn]C-NH2; thioether N-14)
6 | – | 0.08 µM | CC(C)C[C@@H]1NC(=O)[C@H](CCCN)NC(=O)[C@@H](CC(C)C)NC(=O)[C@H](C)N(C)C(=O)[C@H](CCCNC(=N)N)NC(=O)[C@H](Cc2ccc(-c3ccccc3)cc2)NC(=O)[C@H](C(C)C)NC(=O)[C@H](Cc2c[nH]c3ccccc23)NC(=O)[C@H](CC(=O)O)NC(=O)[C@H](Cc2ccc(O)cc2)NC(=O)[C@H](CC(N)=O)NC(=O)CSC[C@@H](C(=O)N[C@@H](C)C(N)=O)NC(=O)[C@H]([C@@H](C)O)NC(=O)[C@H](C(C)C)NC1=O [Compound 1128] ({CH2CO}-NYDWV[Bip]R[NMeA][dL][Orn]LVTCA-NH2; thioether N-14)
7 | – | 0.31 µM | CC(C)C[C@@H]1NC(=O)CSC[C@@H](C(=O)NCC(N)=O)NC(=O)[C@H](CO)NC(=O)[C@H](C(C)C)NC(=O)[C@H](CC(C)C)NC(=O)[C@H](CC(N)=O)NC(=O)[C@H](CC(N)=O)NC(=O)[C@H](C)N(C)C(=O)[C@H](C(C)C)NC(=O)[C@H](Cc2ccc(-c3ccccc3)cc2)NC(=O)[C@H](CC(C)C)NC(=O)[C@H](Cc2c[nH]c3ccccc23)NC(=O)[C@H](CC(=O)O)NC(=O)[C@H](Cc2ccc(O)cc2)NC1=O [Compound 1815] ({CH2CO}-LYDWL[Bip]V[NMeA]NNLVSCG-NH2; thioether N-14)
8 | – | 0.01 µM | CC(C)C[C@@H]1NC(=O)[C@H](Cc2c[nH]c3ccccc23)NC(=O)[C@H](CC(=O)O)NC(=O)[C@H](Cc2ccncc2)NC(=O)[C@H](Cc2ccc(OCC(=O)O)cc2)NC(=O)CSC[C@@H](C(=O)N[C@@H](CCN)C(N)=O)NC(=O)[C@H](CO)NC(=O)[C@H](C(C)C)NC(=O)[C@H](CC2CCCCC2)NC(=O)[C@H](CCN)NC(=O)[C@@H](CC(C)C)NC(=O)[C@H](C)N(C)C(=O)[C@H](C(C)C)NC(=O)[C@H](Cc2ccc(-c3ccccc3)cc2)NC1=O [Compound 1905] ({CH2CO}-Y(Carboxymethyl)[4Pal]DWL[Bip]V[NMeA][dL][Dab][Cha]VSC[Dab]-NH2; thioether N-14)
9 | – | 0.42 µM | CC(C)C[C@@H]1NC(=O)[C@H](CCCNC(=N)N)NC(=O)[C@@H](CC(C)C)NC(=O)[C@H](C)N(C)C(=O)[C@H](CCCNC(=N)N)NC(=O)[C@H](Cc2ccc(-c3ccccc3)cc2)NC(=O)[C@H](C(C)C)NC(=O)[C@H](Cc2c[nH]c3ccccc23)NC(=O)[C@H](CC(=O)O)NC(=O)[C@H](Cc2cc(Br)c(O)c(Br)c2)NC(=O)[C@H](Cc2ccccc2)NC(=O)CSC[C@@H](C(=O)N[C@@H](C)C(N)=O)NC(=O)[C@H]([C@@H](C)O)NC(=O)[C@H](C(C)C)NC1=O [Compound 1092] ({CH2CO}-F[Tyr(3,5-Br2)]DWV[Bip]R[NMeA][dL]RLVTCA-NH2; thioether N-14)
10 | – | 0.02 µM | C#CC[C@H](NC(=O)[C@@H](C)NC(=O)[C@@H]1CSCC(=O)N[C@@H](Cc2cnc[nH]2)C(=O)N[C@@H](Cc2ccc(OCC(=O)O)cc2)C(=O)N[C@@H](CC(=O)O)C(=O)N[C@@H](Cc2c[nH]c3ccccc23)C(=O)N[C@@H](C(C)C)C(=O)N[C@@H](Cc2ccc(-c3ccccc3)cc2)C(=O)N[C@@H](C(C)CC)C(=O)N(C)[C@@H](C)C(=O)N[C@H](CC(C)C)C(=O)N[C@@H](CCN)C(=O)N[C@@H](CC2CCCCC2)C(=O)N[C@@H](C(C)(C)O)C(=O)N[C@@H](CO)C(=O)N1)C(=O)O (stereo partly drawn) [Compound 2239] ({CH2CO}-HY(Carboxymethyl)DWV[Bip][Ile(3ξ)][NMeA][dL][Dab][Cha][Val(3-OH)]SC[dA][Pra]-OH; thioether N-14)
11 | – | 0.01 µM | CC(C)C[C@@H]1NC(=O)[C@H](Cc2c[nH]c3ccccc23)NC(=O)[C@H](CC(=O)O)NC(=O)[C@H](Cc2ccc(C(=O)O)cc2)NC(=O)[C@H](Cc2ccc(OCC(=O)O)cc2)NC(=O)CSC[C@@H](C(=O)N[C@@H](CC(N)=O)C(N)=O)NC(=O)[C@H](CO)NC(=O)[C@H](C(C)(C)O)NC(=O)[C@H](CC2CCCCC2)NC(=O)[C@H](CCN)NC(=O)[C@@H](CC(C)C)NC(=O)[C@H](C)N(C)C(=O)[C@H](C(C)C)NC(=O)[C@H](Cc2ccc(-c3ccccc3)cc2)NC1=O [Compound 1915] ({CH2CO}-Y(Carboxymethyl)[Phe(4-COOH)]DWL[Bip]V[NMeA][dL][Dab][Cha][Val(3-OH)]SCN-NH2; thioether N-14)
12 | – | 0.01 µM | CC[C@H](C)[C@@H]1NC(=O)[C@H](Cc2ccc(-c3ccccc3)cc2)NC(=O)[C@H](CC(C)C)NC(=O)[C@H](Cc2c[nH]c3ccccc23)NC(=O)[C@H](CC(=O)O)NC(=O)[C@H](Cc2ccc(O)cc2)NC(=O)[C@H](Cc2ccccc2)NC(=O)CSC[C@@H](C(=O)NCC(N)=O)NC(=O)[C@H](CO)NC(=O)[C@H](C(C)C)NC(=O)[C@H](CC(C)C)NC(=O)[C@H](CCN)NC(=O)[C@@H](CC(C)C)NC(=O)[C@H](C)N(C)C1=O [Compound 1511] ({CH2CO}-FYDWL[Bip]I[NMeA][dL][Dab]LVSCG-NH2; thioether N-14)
13 | – | 0.26 µM | CC(C)C[C@@H]1NC(=O)[C@H](Cc2c[nH]c3ccccc23)NC(=O)[C@H](CC(=O)O)NC(=O)[C@H](Cc2ccc(OCC(=O)O)cc2)NC(=O)[C@H](Cc2ccc(OCC(=O)O)cc2)NC(=O)CSC(C)(C)[C@@H](C(N)=O)NC(=O)[C@H](CO)NC(=O)[C@H](C(C)C)NC(=O)[C@H](CC(C)C)NC(=O)[C@H](CCN)NC(=O)[C@@H](CC(C)C)NC(=O)[C@H](C)N(C)C(=O)[C@H](C(C)C)NC(=O)[C@H](Cc2ccc(-c3ccccc3)cc2)NC1=O [Compound 2260] ({CH2CO}-Y(Carboxymethyl)Y(Carboxymethyl)DWL[Bip]V[NMeA][dL][Dab]LVS[Pen]-NH2; thioether N-14)
14 | – | 0.03 µM | CC(C)C[C@@H]1NC(=O)[C@H](CCN)NC(=O)[C@@H](CC(C)C)NC(=O)[C@H](c2ccccc2)N(C)C(=O)[C@H](C(C)C)NC(=O)[C@H](Cc2ccc(-c3ccccc3)cc2)NC(=O)[C@H](C(C)C)NC(=O)[C@H](Cc2c[nH]c3ccccc23)NC(=O)[C@H](CC(=O)O)NC(=O)[C@H](Cc2ccc(O)cc2)NC(=O)[C@H](CC(N)=O)NC(=O)CSC[C@@H](C(=O)N[C@@H](C)C(N)=O)NC(=O)[C@H]([C@@H](C)O)NC(=O)[C@H](C(C)C)NC1=O [Compound 1366] ({CH2CO}-NYDWV[Bip]V[NMePhg][dL][Dab]LVTCA-NH2; thioether N-14)
15 | – | 0.24 µM | CC(C)C[C@@H]1NC(=O)[C@H](Cc2c[nH]c3ccccc23)NC(=O)[C@H](CC(=O)O)NC(=O)[C@H](Cc2ccc(O)cc2)NC(=O)[C@H](Cc2ccccc2)NC(=O)CSC[C@@H](C(=O)NCC(N)=O)NC(=O)[C@H](CO)NC(=O)[C@H](C(C)C)NC(=O)[C@H](CC(C)C)NC(=O)[C@H](CC(N)=O)NC(=O)CNC(=O)[C@@H](C)N(C)C(=O)[C@H](C(C)C)NC(=O)[C@H](Cc2ccc(-c3ccccc3)cc2)NC1=O [Compound 1721] ({CH2CO}-FYDWL[Bip]V[dNMeA]GNLVSCG-NH2; thioether N-14)
